According to the supplement of paper PMC10702517:
± gives the standard deviation.

Assay: chemical recovery from spiked human plasma; higher = better extraction
Conditions: pooled human plasma
[1] = extraction method: solvent precipitation (ACN + hexane)
[2] = extraction method: SPE only (HLB 96-well), PES comparison experiment
[3] = extraction method: SPE only (HLB 96-well)
[4] = extraction method: PES+SPE (3 d PDMS equilibration then HLB SPE)

SMILES | chemical recovery [1] [%] | chemical recovery [2] [%] | chemical recovery [3] [%] | chemical recovery [4] [%]
CCn1cc(C(=O)O)c(=O)c2cc(F)c(N3CCNCC3)cc21 [Norfloxacin] | 63.3 ± 5.8 |  |  | 
CC1(C)CC(NC(=O)c2cccc(C(=O)NC3CC(C)(C)NC(C)(C)C3)c2)CC(C)(C)N1 [Nylostab-S-EED] | 70.4 ± 5.2 |  |  | 
CCCCCCCCOC(=O)CCc1cc(C(C)(C)C)c(O)c(C(C)(C)C)c1 [Octyl-3,5-di-tert-butyl-4-hydroxyhydrocinnamate] |  | 0.29 ± 0.58 |  | 
CCCCC(CC)COC(=O)C=Cc1ccc(OC)cc1 (configuration not stated) [Octyl-methoxycinnamate] | 141 ± 20 |  | 10.2 ± 2.1 | 
COc1ccc2[nH]c(SCc3ncc(C)c(OC)c3C)nc2c1 [Omeprazole-sulfide] | 72.5 ± 3.6 |  | 42 ± 3.9 | 19.8 ± 2.5
Cc1nccn1CC1CCc2c(c3ccccc3n2C)C1=O (configuration not stated) [Ondansetron] | 73.2 ± 2.9 | 45.7 ± 7.4 | 32.6 ± 2 | 15.3 ± 3.4
CCCCCCCCCCC[C@@H](C[C@@H]1OC(=O)[C@H]1CCCCCC)OC(=O)[C@H](CC(C)C)NC=O [Orlistat] |  | 6 ± 3.7 | 3.21 ± 3.3 | 
CNC(=O)O/N=C(\SC)C(=O)N(C)C [Oxamyl] | 6.16 ± 4.2 |  | 28 ± 2.6 | 
NC(=O)N1c2ccccc2CC(=O)c2ccccc21 [Oxcarbazepine] | 0.126 ± 0.22 |  |  | 
CCCCC(CC)COC(=O)c1ccc(N(C)C)cc1 (configuration not stated) [Padimate-O] |  |  | 22.8 ± 4.1 | 
CCCCCCCCCCCCCCCC(=O)NCCO [Palmitoylethanolamide] |  |  | 33.5 ± 8.8 | 
CCCC(Cn1cncn1)c1ccc(Cl)cc1Cl (configuration not stated) [Penconazole] | 67.7 ± 4.2 |  | 65.9 ± 1.6 | 51.3 ± 5.9
O=C(Nc1ccccc1)N(Cc1ccc(Cl)cc1)C1CCCC1 [Pencycuron] |  |  | 28.4 ± 3.3 | 54 ± 6.3
COc1cnc(OC)n2nc(NS(=O)(=O)c3c(OCC(F)F)cccc3C(F)(F)F)nc12 [Penoxsulam] | 78.9 ± 3.6 |  | 42.2 ± 4.3 | 53.1 ± 7.8
CCc1c(Br)c(Br)c(Br)c(Br)c1Br [Pentabromoethylbenzene] |  |  | 3.34 ± 1.2 | 53.3 ± 3.7
Cc1c(Br)c(Br)c(Br)c(Br)c1Br [Pentabromotoluene] |  |  | 6.76 ± 2.3 | 61.6 ± 3.7
NC(=O)C(F)(F)C(F)(F)F [Pentafluoropropionamide] | 0.174 ± 0.24 |  | 0.923 ± 0.9 | 9.12 ± 7.6
CCCC(C)C1(CC)C(=O)NC(=O)NC1=O (configuration not stated) [Pentobarbital] | 75.7 ± 6.9 |  | 43.8 ± 2 | 49.6 ± 5.1
O=C(O)C(F)(F)C(F)(F)C(F)(F)OC(F)(F)F [Perfluoro-4-methoxybutanoic-acid] | 78.7 ± 3.5 |  | 36.7 ± 2.8 | 43.5 ± 3.9
O=S(=O)(O)C(F)(F)C(F)(F)C(F)(F)C(F)(F)F [Perfluorobutanesulfonic-acid] | 81.9 ± 2.1 |  | 45.3 ± 3.3 | 49.5 ± 3.7
O=S(=O)(O)C(F)(F)C(F)(F)C(F)(F)C(F)(F)C(F)(F)C(F)(F)C(F)(F)F [Perfluoroheptanesulfonic-acid] | 61.6 ± 3.8 |  | 35.6 ± 2 | 38.6 ± 6.2
O=S(=O)(O)C(F)(F)C(F)(F)C(F)(F)C(F)(F)C(F)(F)C(F)(F)F [Perfluorohexanesulfonic-acid] |  |  | 34.4 ± 2.7 | 40.9 ± 4.1
O=C(O)C(F)(F)C(F)(F)C(F)(F)C(F)(F)C(F)(F)F [Perfluorohexanoic acid] | 75.3 ± 4.1 | 44.4 ± 8.7 | 35.5 ± 3.9 | 40.2 ± 4.7

SMILES | chemical recovery [1] [%] | chemical recovery [2] [%] | chemical recovery [3] [%] | chemical recovery [4] [%]
O=P(O)(O)C(F)(F)C(F)(F)C(F)(F)C(F)(F)C(F)(F)C(F)(F)F [Perfluorohexylphosphonic-acid] | 26.7 ± 9.3 |  | 31.2 ± 4.6 | 37.5 ± 6
O=C(O)C(F)(F)C(F)(F)C(F)(F)C(F)(F)C(F)(F)C(F)(F)C(F)(F)C(F)(F)F [Perfluorononanoic-acid] | 66.3 ± 5.1 |  | 8.32 ± 1.8 | 
NS(=O)(=O)C(F)(F)C(F)(F)C(F)(F)C(F)(F)C(F)(F)C(F)(F)C(F)(F)C(F)(F)F [Perfluorooctanesulfonamide] |  | 38.8 ± 9.3 | 32 ± 4.9 | 
O=S(=O)(O)C(F)(F)C(F)(F)C(F)(F)C(F)(F)C(F)(F)C(F)(F)C(F)(F)C(F)(F)F [Perfluorooctanesulfonic acid] |  |  | 26.8 ± 0.38 | 
O=C(O)C(F)(F)C(F)(F)C(F)(F)C(F)(F)C(F)(F)C(F)(F)C(F)(F)F [Perfluorooctanoic acid] | 89.3 ± 19 | 33.6 ± 8.8 | 30.2 ± 2.8 | 
O=S(=O)(O)C(F)(F)C(F)(F)C(F)(F)C(F)(F)C(F)(F)F [Perfluoropentanesulfonic-acid] | 72.9 ± 3.6 |  | 36.5 ± 4.8 | 47.1 ± 4.2
O=C(O)C(F)(F)C(F)(F)C(F)(F)C(F)(F)F [Perfluoropentanoic-acid] | 78.1 ± 8.5 |  | 31.1 ± 3.3 | 32.1 ± 3.4
O=C(O)C(F)(F)C(F)(F)F [Perfluoropropanoic-acid] | 86.2 ± 7.5 |  | 3.57 ± 2.9 | 2.17 ± 0.57
O=C(O)C(F)(F)C(F)(F)C(F)(F)C(F)(F)C(F)(F)C(F)(F)C(=O)O [Perfluorosuberic-acid-] | 71.9 ± 7.3 |  | 5.56 ± 1.8 | 0.975 ± 0.36
O=C(O)C(F)(F)C(F)(F)C(F)(F)C(F)(F)C(F)(F)C(F)(F)C(F)(F)C(F)(F)C(F)(F)C(F)(F)C(F)(F)C(F)(F)C(F)(F)F [Perfluorotetradecanoic acid] | 41.3 ± 11 |  |  | 
O=C(O)C(F)(F)C(F)(F)C(F)(F)C(F)(F)C(F)(F)C(F)(F)C(F)(F)C(F)(F)C(F)(F)C(F)(F)F [Perfluoroundecanoic-acid] |  |  | 26.8 ± 6 | 
CC1(C)C(C=C(Cl)Cl)C1C(=O)OCc1cccc(Oc2ccccc2)c1 (configuration not stated) [Permethrin] | 35.4 ± 3.1 |  | 2.59 ± 1 | 55 ± 9.7
NCCc1ccccc1 [Phenethylamine] | 47.1 ± 1.7 |  | 6.63 ± 4.2 | 
c1ccc2c(c1)Nc1ccccc1S2 [Phenothiazine] | 41.2 ± 4.4 |  |  | 
CCC(C(N)=O)(C(N)=O)c1ccccc1 [Phenylethylmalonamide] |  | 60.3 ± 8.1 | 37.2 ± 2.4 | 43.1 ± 4.2
NNc1ccccc1 [Phenylhydrazine] | 40.7 ± 8.9 |  |  | 
O=P(O)(O)Oc1ccccc1 [Phenylphosphate] |  |  |  | 0.213 ± 0.049
CCOP(=S)(OCC)SCSCC [Phorate] | 37.8 ± 3.6 |  | 10.2 ± 3.3 | 0.327 ± 0.035
N#Cc1ccccc1C#N [Phthalonitrile] |  |  | 8.49 ± 8.2 | 
Nc1c(Cl)c(Cl)nc(C(=O)O)c1Cl [Picloram] | 63.3 ± 3.8 |  | 34.9 ± 2.7 | 29.5 ± 5.1
CC(C)NCC(O)COc1cccc2[nH]ccc12 (configuration not stated) [Pindolol] | 76 ± 2.5 |  |  | 42.3 ± 1.6
CCc1cc(C)cc(CC)c1-c1c(OC(=O)C(C)(C)C)n2n(c1=O)CCOCC2 [Pinoxaden] |  |  | 21.1 ± 3.2 | 0.0892 ± 0.042
NC(=O)C1(N2CCCCC2)CCN(CCCC(=O)c2ccc(F)cc2)CC1 [Pipamperone] | 71.4 ± 4.4 |  | 28.3 ± 3.7 | 4.98 ± 1.1

SMILES | chemical recovery [1] [%] | chemical recovery [2] [%] | chemical recovery [3] [%] | chemical recovery [4] [%]
CC[C@H](C)C(=O)O[C@H]1C[C@H](O)C=C2C=C[C@H](C)[C@H](CC[C@@H](O)C[C@@H](O)CC(=O)O)[C@H]21 [Pravastatin] | 67 ± 6.7 | 58.6 ± 5.1 | 28.1 ± 2.9 | 31.6 ± 3.5
CC(C)C[C@H](CN)CC(=O)O [Pregabalin] | 66 ± 7.2 |  | 8.64 ± 5.9 | 
CCC1(c2ccccc2)C(=O)NCNC1=O [Primidone] | 76.5 ± 3.6 | 41.9 ± 4.5 | 36.6 ± 3.8 | 41.5 ± 2.6
CCCN(CCOc1c(Cl)cc(Cl)cc1Cl)C(=O)NC=O [Prochloraz BTS445-96] | 71.33 ± 0.59 |  |  | 
CC12CC1(C)C(=O)N(c1cc(Cl)cc(Cl)c1)C2=O (configuration not stated) [Procymidone] |  |  | 18.9 ± 2.2 | 
CCCSP(=O)(OCC)Oc1ccc(Br)cc1Cl (configuration not stated) [Profenofos] |  |  | 39.9 ± 5.7 | 
CCCOC(=O)NCCCN(C)C [Propamocarb] | 54.9 ± 3.7 |  | 6.68 ± 4.3 | 
C#CCOS(=O)OC1CCCCC1Oc1ccc(C(C)(C)C)cc1 (configuration not stated) [Propargite] |  |  | 42.4 ± 10 | 
CNC(=O)Oc1ccccc1OC(C)C [Propoxur] | 46.7 ± 3.7 |  | 37.5 ± 0.59 | 33.3 ± 8.7
CCCN(CCC)C(=O)SCc1ccccc1 [Prosulfocarb] | 72.6 ± 6.4 | 35.1 ± 6 | 33.6 ± 4.5 | 
CC1=NNC(=O)N(/N=C/c2cccnc2)C1 [Pymetrozine] | 75.4 ± 2.9 |  | 13.5 ± 3.4 | 
Cc1cc(C)nc(Nc2ccccc2)n1 [Pyrimethanil] | 61.9 ± 3 |  | 31.2 ± 2.5 | 51.1 ± 7.5
[O-][n+]1cccc2ccccc21 [Quinoline N-oxide] | 76.1 ± 3.2 |  | 43.8 ± 0.64 | 42.6 ± 6
CC(Oc1ccc(Oc2cnc3cc(Cl)ccc3n2)cc1)C(=O)O (configuration not stated) [Quizalofop] | 67.8 ± 5.7 |  | 28.1 ± 1.3 | 43.1 ± 5.6
CNC(=C[N+](=O)[O-])NCCSCc1ccc(CN(C)C)o1 [Ranitidine] | 65.6 ± 6.1 |  |  | 
O=C1NS(=O)(=O)c2ccccc21 [Saccharin] |  |  | 38.6 ± 7.1 | 
CC[C@@H](C(=O)[C@@H](C)[C@@H](O)[C@H](C)[C@@H]1O[C@@H]([C@@H](CC)C(=O)O)CC[C@@H]1C)[C@H]1O[C@]2(C=C[C@@H](O)[C@]3(CC[C@@](C)([C@H]4CC[C@](O)(CC)[C@H](C)O4)O3)O2)[C@H](C)C[C@@H]1C [Salinomycin] | 51.9 ± 13 |  | 26.7 ± 6.9 | 
CCCC[N+]1(C)[C@H]2CC(OC(=O)C(CO)c3ccccc3)C[C@H]1[C@H]1O[C@H]12 (some centres not stated) [Scopolamine-N-butyl] | 65.8 ± 3.2 | 44.2 ± 6.1 | 38.4 ± 3.4 | 42.2 ± 2.6
O=C(O)CCCCCCCCC(=O)O [Sebacic-acid] |  |  | 48.9 ± 13 | 54.6 ± 13
C=CCC1(C(C)CCC)C(=O)NC(=O)NC1=O (configuration not stated) [Secobarbital] | 72.8 ± 5.8 | 61.1 ± 8.4 | 36.7 ± 1.2 | 53.8 ± 5
CCNc1nc(NCC)[nH]c(=O)n1 [Simazine-2-Hydroxy] | 75.6 ± 6 |  | 14.8 ± 5.5 | 20.1 ± 4.3
